Reference: patent publication US20260167673A1, “NOVEL POLYPEPTIDE, POLYPEPTIDE DERIVATIVE AND USE THEREOF” (NANJING ANJI BIOTECHNOLOGY CO., LTD., priority 2023, published 2026)
Marks after values point to notes of the source that are not given here. Where no end group is shown, it is not given here.

How the values were obtained:
Format in all cases: cell-based
[1] = system: human prostate cancer cells PC-3; assay: CCK8 proliferation inhibition, PC-3; details: PC-3, 50 μM, 48 h
Description: (§1) Incubation was continued for 4 h in a cell incubator, an absorbance was measured at 450 nm, and a proliferation inhibition was calculated. Data was presented as mean±SD, and GraphPad Prism 5.0 statistical software was used. A t-test was used for comparison between two groups, while One-way Anova (Dunnett) was used for comparison among a plurality of groups.

[2] = system: human ovarian cancer Skvo3 cells; assay: Transwell metastasis inhibition, Skvo3; details: 48 h
Description: (§2) Melanoma, cervical cancer, ovarian cancer, liver cancer, and lung cancer cells were seeded into transwell chambers, with 100 μL per well. Different doses of the HMMW micropeptide and the novel polypeptide HMMW15-51 were added to each chamber as a treatment group, while no drug was added to a blank group. Then, 0.6 mL of a complete culture medium containing 10% FBS was added to the lower chambers of the transwell to stimulate cell metastasis, and the cells were cultured at 5% CO2 and 37° C. for 48 h. The culture solution was discarded from the wells. The cells were fixed with methanol at room temperature for 30 min, stained with 0.1% crystal violet at room temperature for 10 min, and rinsed with clean water. The upper layer nonmetastatic cells were wiped off with a cotton swab. The cells were observed under a microscope, and four fields of view were selected to take photos and count the cells. A metastasis inhibition (MI) was calculated according to a formula: […]
(§3) where Ntest represents the number of cell metastases in the treatment group, and Ncontrol represents the number of cell metastases in the blank control group.
(§4) Data was presented as mean±SD, and GraphPad Prism 5.0 statistical software was used.

[3] = system: human esophageal cancer cells TE-13; assay: CCK8 proliferation inhibition, TE-13; details: TE-13, 50 μM, 48 h
Description: as §1

[4] = system: human T lymphoblastic leukemia cells Jurkat, Clone E6-1; assay: CCK8 proliferation inhibition, Jurkat, Clone E6-1; details: Clone E6-1, 50 μM, 48 h
Description: as §1

[5] = system: human melanoma A375 cells; assay: Transwell metastasis inhibition, A375; details: 48 h
Description: as §2, §3, §4

[6] = system: human papillary thyroid carcinoma cells NPPA87-1; assay: CCK8 proliferation inhibition, NPPA87-1; details: NPPA87-1, 50 μM, 48 h
Description: as §1

[7] = system: human chronic myeloid leukemia cells K562; assay: CCK8 proliferation inhibition, K562; details: K562, 50 μM, 48 h
Description: as §1

[8] = system: human pancreatic cancer cells PANC-1; assay: CCK8 proliferation inhibition, PANC-1; details: PANC-1, 50 μM, 48 h
Description: as §1

[9] = system: human malignant melanoma cells SK-mel-2; assay: CCK8 proliferation inhibition, SK-mel-2; details: SK-mel-2, 50 μM, 48 h
Description: as §1

[10] = system: human brain astrocytoma cells U87MG; assay: CCK8 proliferation inhibition, U87MG; details: 50 μM, 48 h
Description: as §1

[11] = system: human ovarian clear cell carcinoma cells ES-2; assay: CCK8 proliferation inhibition, ES-2; details: ES-2, 50 μM, 48 h
Description: as §1

[12] = system: human small intestine cancer cells HIC; assay: CCK8 proliferation inhibition, HIC; details: 50 μM, 48 h
Description: as §1

[13] = system: human cholangiocarcinoma cells QBC939; assay: CCK8 proliferation inhibition, QBC939; details: QBC939, 50 μM, 48 h
Description: as §1

[14] = system: human kidney clear cell adenocarcinoma cells 786-O; assay: CCK8 proliferation inhibition, 786-O; details: 50 μM, 48 h
Description: as §1

[15] = system: human ovarian cancer cells SKOV3; assay: CCK8 proliferation inhibition, SKOV3 (Example 5); details: SKOV3, 50 μM, 48 h
Description: as §1

[16] = system: human lung adenocarcinoma cells SPC-A1; assay: CCK8 proliferation inhibition, SPC-A1; details: SPC-A1, 50 μM, 48 h
Description: as §1

MERAGVPGFSPRRSSVEAKMQSTSCSVRKSSTVTAWPAVVLLLSWGQRRGG [HMMW]
Inhibition (%) [1]: 50.341 ± 3.864 % | OD [1]: 0.509 ± 0.040 | Number of cell metastases ([2]; Skvo3, 50 μmol/L): 118 ± 26.16 | Inhibition (%) ([2]; Skvo3 metastasis, 50 μmol/L): 89.60*** % | Inhibition (%) [3]: 53.060 ± 1.911 % | OD [3]: 0.389 ± 0.016 | Inhibition (%) [4]: 44.307 ± 3.404 % | OD [4]: 0.602 ± 0.037 | Number of cell metastases ([5]; A375, 50 μmol/L): 371 ± 13.00 | Inhibition (%) ([5]; A375 metastasis, 50 μmol/L): 37.13*** % | Inhibition (%) [6]: 48.192 ± 2.999 % | OD [6]: 0.478 ± 0.028 | Inhibition (%) [7]: 51.933 ± 2.838 % | OD [7]: 0.618 ± 0.036 | Inhibition (%) [8]: 50.273 ± 6.135 % | OD [8]: 0.424 ± 0.052 | Inhibition (%) [9]: 46.311 ± 4.884 % | OD [9]: 0.466 ± 0.042 | Inhibition (%) [10]: 62.176 ± 2.001 % | OD [10]: 0.365 ± 0.019 | Inhibition (%) [11]: 51.916 ± 0.690 % | OD [11]: 0.464 ± 0.007 | Inhibition (%) [12]: 50.213 ± 2.165 % | OD [12]: 0.507 ± 0.022 | Inhibition (%) [13]: 49.490 ± 2.138 % | OD [13]: 0.429 ± 0.018 | Inhibition (%) [14]: 62.624 ± 7.014 % | OD [14]: 0.413 ± 0.078 | Inhibition (%) [15]: 52.644 ± 4.018 % | OD [15]: 0.466 ± 0.040 | Inhibition (%) [16]: 49.128 ± 3.053 % | OD [16]: 0.525 ± 0.032
